Test results taken from paper PMC9062259, “Mammalian Ddi2 is a shuttling factor containing a retroviral protease domain that influences binding of ubiquitylated proteins and proteasomal degradation” (The Journal of Biological Chemistry, 2022).

T1: Ddi2 (Homo sapiens, UniProt Q5TDH0)
T1 construct: His6-Ddi2
T1 sequence (Q5TDH0 1-399): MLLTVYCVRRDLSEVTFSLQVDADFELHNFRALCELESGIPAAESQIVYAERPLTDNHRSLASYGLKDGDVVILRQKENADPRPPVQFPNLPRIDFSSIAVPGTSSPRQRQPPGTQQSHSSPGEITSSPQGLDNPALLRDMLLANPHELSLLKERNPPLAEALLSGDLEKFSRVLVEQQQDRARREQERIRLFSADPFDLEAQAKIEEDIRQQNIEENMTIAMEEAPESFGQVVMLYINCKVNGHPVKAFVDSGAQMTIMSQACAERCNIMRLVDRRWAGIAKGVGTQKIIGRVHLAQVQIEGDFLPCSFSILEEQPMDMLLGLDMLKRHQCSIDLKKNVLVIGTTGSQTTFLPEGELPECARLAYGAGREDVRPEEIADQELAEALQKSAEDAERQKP


Columns and labels:
Ddi2 = molecular target: T1, Ddi2; assay: Inhibition of cleavage of fluorescently labeled ubiquitylated NeD-sfGFP by purified His6-Ddi2 (SDS-PAGE, fluorescence imaging); type: biochemical
[1] = molecular target: the molecule itself; assay: SEC; His-Ddi2 after Ni-NTA on a Superdex 16/60 column in 25 mM Hepes-KOH pH 8, 40 mM potassium acetate, 10% glycerol, 1 mM DTT

Row | Molecule | EC50 (Ddi2) | binding result [1]
1 | Cc1c(O)cccc1C(=O)N[C@@H](CSc1ccccc1)[C@H](O)CN1C[C@H]2CCCC[C@H]2C[C@H]1C(=O)NC(C)(C)C [nelfinavir] | ~40 µM | 
2 | His6-Ddi2 (natural protein, human, UniProt Q5TDH0 1-399, looked up, Ddi2, human, from a pET16b plasmid (gift from Klara Saskova); Collected from gel filtration at a molecular weight consistent with dimerization; also called His-Ddi2; purified Ddi2; source: E. coli BL21 RIL (DE3) Codon Plus, purified (Ni-NTA, Superdex gel filtration)) MLLTVYCVRRDLSEVTFSLQVDADFELHNFRALCELESGIPAAESQIVYAERPLTDNHRSLASYGLKDGDVVILRQKENADPRPPVQFPNLPRIDFSSIAVPGTSSPRQRQPPGTQQSHSSPGEITSSPQGLDNPALLRDMLLANPHELSLLKERNPPLAEALLSGDLEKFSRVLVEQQQDRARREQERIRLFSADPFDLEAQAKIEEDIRQQNIEENMTIAMEEAPESFGQVVMLYINCKVNGHPVKAFVDSGAQMTIMSQACAERCNIMRLVDRRWAGIAKGVGTQKIIGRVHLAQVQIEGDFLPCSFSILEEQPMDMLLGLDMLKRHQCSIDLKKNVLVIGTTGSQTTFLPEGELPECARLAYGAGREDVRPEEIADQELAEALQKSAEDAERQKP |  | binds
